From patent US20140303092A1 (CHIMERIX, INC., priority 2011, published 2014)

Conditions: rat, in vivo
From the text: AME of ^14C-HDP-CDV Following Oral Administration to Bile Duct-Intact and Bile Duct-Cannulated Rats. In order to more fully define the CYP enzymes involved in HDP-CDV elimination, the disposition and metabolism of ^14C-radiolabeled-HDP-CDV was studied in bile-duct cannulated rats either with or without pretreatment with the broad-spectrum CYP inhibitor aminobenzotriazole (ABT). This study has completed the in-life phase and sample analysis is ongoing.

Question: Which “administered radioactivity excreted in bile” value does the source give for `CCCCCCCCCCCCCCCCOCCCOP(=O)(O)COC(CO)Cn1ccc(N)nc1=O` (stereo not shown) [HDP-CDV] here?
Answer: ~8%

Question: What about the “administered radioactivity excreted in feces” value of the same compound?
Answer: ~57%

Question: What about the “administered radioactivity excreted in urine” value of the same compound?
Answer: approximately 30%

Question: And the “radioactivity excreted in bile” value?
Answer: 3%

Question: And the “radioactivity excreted in feces” value?
Answer: 55%

Question: What about the “radioactivity excreted in urine” value of the same compound?
Answer: 28%

Question: What about the recovery of radioactivity of the same compound?
Answer: ≥ 90%
